Values quoted from earlier work in patent publication US20030211175A1, “Methods and compositions for dietary supplements” (priority 2002, published 2003).

Chromium picolinate
reducing an elevated blood glucose level (human): moderately effective | toxicity (in vivo): considerable toxicity
